Laboratory results as given in PMC4684281, “Antitumor Effects and Mechanism of Novel Emodin Rhamnoside Derivatives against Human Cancer Cells In Vitro” (PLoS ONE, 2015).
Values after ≈ are worked out from the molar mass of the structure shown. Where two headings read alike, the source gives them in different places.

Tests used:
[1] = system: A549 cells; assay: MTT cell viability assay, A549; assay type: cell-based, Human; conditions: for IC50: A549
Method: (§1) The viability of cancer cells was evaluated by MTT assay. Briefly, cells were inoculated in 96-well culture plates at the density of 1×10^4/well with complete medium containing 10% fetal calf serum in a final volume of 0.2 mL. Cells were incubated at 37°C for at least 24 hours to allow optimal attachment. When the cells reached 60% confluence, they were treated with Cisplatin, HCPT and emodin rhamnopyranosides derivatives in various concentrations, and incubated in a humidity-controlled 5%CO2 incubator at 37°C for 72 hours. Medium were exchanged once every 24 hours. Cell control group and blank group were set up in the same manner, with each group having six parallel wells. Cell survival was assessed by directly adding 22 μL of 5mg/mL MTT to 0.2 mL medium. After three hours, the formazan precipitate was dissolved in 200μL isopropanol per well, and completely mixed under room temperature. Afterwards, the optical density of each well was detected at 570 nm wavelength by iMark microplate reader (Bio-rad,USA). This experiment was repeated at least three times.

[2] = system: OVCAR-3 cells; assay: MTT cell viability assay, OVCAR-3; assay type: cell-based, Human; conditions: for IC50: OVCAR-3
Method: as §1

[3] = system: Cyto C gene expression of HepG2 cells; assay: RT-qPCR gene expression, Cytochrome C; assay type: cell-based, Human; conditions: 48 hours, control 1.030±0.280
Method: HepG2 cells were inoculated in 6-well culture plates at a density of 3×10^5 cells/well, and allowed to attach at 37°C for 24 hours. Then cells were treated with specific concentrations of EM-d-Rha and incubated in a humidified incubator supplied with 5% CO2 at 37°C for 48 hours. Medium were changed once every 24 hours. Afterwards, mRNA was extracted from every group using E.Z.N.A.^TM Total RNA Kit II according to the manufacturer’s instructions. The extracted mRNA was dissolved in 20 μL ddH2O (Qiagen) containing diethyl pyrocarbonate (DEPC). The concentration of mRNA was quantified with a NanoDrop ND-100 device (Thermo Fisher Scientific). cDNA was synthesized using 3μg of the extracted mRNA from each sample with PCR system (BIO-RAD,USA). The cDNA synthesis reaction was prepared according to the manufacturer’s instructions by mixing 3μg mRNA, 4.0μL 5× MMLV buffer, 3 μL oligodT18, 0.5μL 10 mM dNTP solution, 0.8μL RNase inhibitor, 3.7μL MMLV Rtase, and 6.0μL DEPC ddH2O in PCR tubes. The reaction condition was 5min at 70°C, 60 min at 42°C and 10min at 4°C. The products were used for subsequent RT-qPCR analysis. The level of mRNA expression was measured by RT-qPCR using a CFX96^TM C1000 Real-Time PCR System (BIO-RAD, USA).The primers were designed using idt.dna software system (http //www.idtdna.com). The specific primers were: Cyto C: 5′-[…]-3′ (forward), 5′- […] -3′ (reverse); Caspase 3: 5′- CCTACAGCCCATTTC TCCATAC-3′ (forward), 5′-[…]-′ (reverse); β-actin: 5′-[…]-3′ (forward), 5′-[…]-3′ (reverse). The product sizes of Cyto C, Caspase 3 and β-actin were 91bp, 125bp and 107bp, respectively. The PCR reaction was performed in a final volume of 20μL using an optical 96-well tray. The reaction mixture consisted of 10μL of SYBR I green Mix/ GoTaq®qPCR
Master Mix (Promega), 0.3μL of each primer (10μM), and 1.0 μL cDNA template. PCR cycling condition was one cycle of 5min at 95°C, 39 cycles and each of which was consisted of 15 seconds at 95°C, 15 seconds at 62°C and 30 seconds at 72°C, with final extension at 60°C for 5 Seconds. The thermal melt parameter was investigated to assess the homogeneity of PCR. Each sample was analyzed in quadruplicate and mean was used for further analysis. The mRNA expression levels of each sample were quantified by measuring the threshold cycle (CT) values of genes. The relative values of the target gene expression were calculated according to CT values of the target genes and the reference gene (β-actin) by applying Livak and Schmittgen method. That is, it equals to 2^-Δ ΔCT, ΔCT equals the mean of Ct for target gene minus the mean of Ct for β-actin gene, and ΔΔCT equals ΔCT of the treated group minus ΔCT of the control group.

[4] = system: MCF-7 cells; assay: MTT cell viability assay, MCF-7; assay type: cell-based; conditions: Homo sapiens, MCF7
Method: as §1

[5] = system: SGC-7901 cells; assay: MTT cell viability assay, SGC-7901; assay type: cell-based; conditions: Homo sapiens
Method: as §1

[6] = system: MDCK cells; assay: MTT cell viability assay, MDCK; assay type: cell-based, Canine; conditions: Canis lupus familiaris, 72 hours
Method: as §1

IC50 ([1]; Homo sapiens, MTT at 72h, n=3, mean±S.E.M, read-out: IC50 for EM-d-Rha, A549): 1750 ± 630 nM | IC50 ([1]; Homo sapiens, MTT, 72 hours, read-out: IC50 values, A549): 2.6 µg/mL | Decrease of IC50 compared to the IC50 of emodin, A549 ([1]; from Table 1): 7.52 fold | IC50 ([2]; Homo sapiens, MTT at 72h, n=3, mean±S.E.M, read-out: IC50 for EM-d-Rha, OVCAR-3): 2260 ± 920 nM | IC50 ([2]; Homo sapiens, MTT, 72 hours, read-out: IC50 values, OVCAR-3): 0.61 µg/mL | Decrease of IC50 compared to the IC50 of emodin, OVCAR-3 ([2]; from Table 1): 42.3 fold | IC50 ([4]; MTT at 72h, n=3, mean±S.E.M, read-out: IC50 for EM-d-Rha, MCF-7): 8560 ± 1040 nM | IC50 ([5]; MTT at 72h, n=3, mean±S.E.M, read-out: IC50 for EM-d-Rha, SGC-7901): 1990 ± 120 nM
Structure (SMILES): CC(=O)O[C@@H]1[C@@H](O[C@@H]2O[C@@H](C)[C@H](O)[C@@H](OC(C)=O)[C@H]2OC(C)=O)[C@H](C)O[C@@H](Oc2cc(O)c3c(c2)C(=O)c2cc(C)cc(O)c2C3=O)[C@@H]1OC(C)=O [S-8, 3-(2”,3”-Di-O-acetyl-α-L-rhamnopyranosyl-(1→4)-2’,3’-di-O-acetyl-α-L-rhamnopyranosyl)-emodin]
inhibition at 0.1 µM ([1]; Homo sapiens, A549, 0.1μM, MTT 72h, read-out: The inhibition rate of EM-d-Rha): 13.95 ± 0.02% | inhibition at 0.5 µM ([1]; Homo sapiens, A549, 0.5μM, MTT 72h, read-out: The inhibition rate of EM-d-Rha): 27.3 ± 2.19% | inhibition at 2.5 µM ([1]; Homo sapiens, A549, 2.5μM, MTT 72h, read-out: The inhibition rate of EM-d-Rha): 33.7 ± 1.46% | inhibition at 12.5 µM ([1]; Homo sapiens, A549, 12.5μM, MTT 72h, read-out: The inhibition rate of EM-d-Rha): 63.5 ± 1.03% | inhibition at 62.5 µM ([1]; Homo sapiens, A549, 62.5μM, MTT 72h, read-out: The inhibition rate of EM-d-Rha): 75.96 ± 0.58% | inhibition at 0.1 µM ([2]; Homo sapiens, OVCAR-3, 0.1μM, MTT 72h, read-out: The inhibition rate of EM-d-Rha): 1.4 ± 0.21% | inhibition at 0.5 µM ([2]; Homo sapiens, OVCAR-3, 0.5μM, MTT 72h, read-out: The inhibition rate of EM-d-Rha): 2.95 ± 1.12% | inhibition at 2.5 µM ([2]; Homo sapiens, OVCAR-3, 2.5μM, MTT 72h, read-out: The inhibition rate of EM-d-Rha): 66 ± 1.27% | inhibition at 12.5 µM ([2]; Homo sapiens, OVCAR-3, 12.5μM, MTT 72h, read-out: The inhibition rate of EM-d-Rha): 83.6 ± 1.15% | inhibition at 62.5 µM ([2]; Homo sapiens, OVCAR-3, 62.5μM, MTT 72h, read-out: The inhibition rate of EM-d-Rha): 90.64 ± 0.74% | Cytochrome C mRNA expression level relative to controls ([3]; HepG2, 0.70μM): 1.009±0.475 fold | Cytochrome C mRNA expression level relative to controls ([3]; HepG2, 1.40μM): 1.086±0.727 fold | Cytochrome C mRNA expression level relative to controls ([3]; HepG2, 2.80μM, listed as EM-d-Rha): 3.258±2.402 fold | Cytochrome C mRNA expression level relative to controls ([3]; HepG2, 5.60μM): 5.625±4.950 fold | inhibition at 0.1 µM ([4]; MCF-7, 0.1μM, MTT 72h, read-out: The inhibition rate of EM-d-Rha): 16.8 ± 1.4% | inhibition at 0.5 µM ([4]; MCF-7, 0.5μM, MTT 72h, read-out: The inhibition rate of EM-d-Rha): 20.1 ± 3.83% | inhibition at 2.5 µM ([4]; MCF-7, 2.5μM, MTT 72h, read-out: The inhibition rate of EM-d-Rha): 41.4 ± 6.53% | inhibition at 12.5 µM ([4]; MCF-7, 12.5μM, MTT 72h, read-out: The inhibition rate of EM-d-Rha): 62.7 ± 6.81% | inhibition at 62.5 µM ([4]; MCF-7, 62.5μM, MTT 72h, read-out: The inhibition rate of EM-d-Rha): 77.1 ± 5.1% | inhibition at 0.1 µM ([5]; SCG-7901, 0.1μM, MTT 72h, read-out: The inhibition rate of EM-d-Rha): 20.1 ± 0.18% | inhibition at 0.5 µM ([5]; SCG-7901, 0.5μM, MTT 72h, read-out: The inhibition rate of EM-d-Rha): 40.99 ± 0.02% | inhibition at 2.5 µM ([5]; SCG-7901, 2.5μM, MTT 72h, read-out: The inhibition rate of EM-d-Rha): 42.63 ± 0.02% | inhibition at 12.5 µM ([5]; SCG-7901, 12.5μM, MTT 72h, read-out: The inhibition rate of EM-d-Rha): 95.01 ± 0.01% | inhibition at 62.5 µM ([5]; SCG-7901, 62.5μM, MTT 72h, read-out: The inhibition rate of EM-d-Rha): 94.33 ± 0.05% | IC50 [6]: 18.5 µg/mL (≈ 25.3 µM)
